Experimental data from patent publication US20230257398A1, “PYRIMIDINE-BASED TRICYCLIC COMPOUND AND USE THEREOF” (Chia Tai Tianqing Pharmaceutical Group Co., Ltd., priority 2020, published 2023).

Target: T1, sGC (Homo sapiens, UniProt Q02108+Q02153)
T1 construct: Preparation of LNCap Cells; endogenous in cells; host or cells: LNCaP cells (14th generation), no transfection described
T1 sequence (Q02153 1-619): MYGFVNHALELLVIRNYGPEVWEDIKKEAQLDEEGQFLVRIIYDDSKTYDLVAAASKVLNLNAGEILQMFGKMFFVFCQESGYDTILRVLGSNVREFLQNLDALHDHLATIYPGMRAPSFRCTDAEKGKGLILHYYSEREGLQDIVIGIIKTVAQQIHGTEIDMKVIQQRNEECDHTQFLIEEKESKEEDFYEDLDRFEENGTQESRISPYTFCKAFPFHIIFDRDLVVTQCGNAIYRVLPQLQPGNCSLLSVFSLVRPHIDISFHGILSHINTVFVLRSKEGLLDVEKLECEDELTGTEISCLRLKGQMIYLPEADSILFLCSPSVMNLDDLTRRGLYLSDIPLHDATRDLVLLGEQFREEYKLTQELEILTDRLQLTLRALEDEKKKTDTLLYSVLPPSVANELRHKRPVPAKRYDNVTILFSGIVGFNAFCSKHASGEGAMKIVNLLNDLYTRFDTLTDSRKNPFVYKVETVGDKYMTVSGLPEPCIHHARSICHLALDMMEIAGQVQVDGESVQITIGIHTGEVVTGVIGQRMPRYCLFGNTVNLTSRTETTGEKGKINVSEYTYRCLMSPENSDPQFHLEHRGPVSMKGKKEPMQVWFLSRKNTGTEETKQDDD
T1 sequence (Q02108 1-690): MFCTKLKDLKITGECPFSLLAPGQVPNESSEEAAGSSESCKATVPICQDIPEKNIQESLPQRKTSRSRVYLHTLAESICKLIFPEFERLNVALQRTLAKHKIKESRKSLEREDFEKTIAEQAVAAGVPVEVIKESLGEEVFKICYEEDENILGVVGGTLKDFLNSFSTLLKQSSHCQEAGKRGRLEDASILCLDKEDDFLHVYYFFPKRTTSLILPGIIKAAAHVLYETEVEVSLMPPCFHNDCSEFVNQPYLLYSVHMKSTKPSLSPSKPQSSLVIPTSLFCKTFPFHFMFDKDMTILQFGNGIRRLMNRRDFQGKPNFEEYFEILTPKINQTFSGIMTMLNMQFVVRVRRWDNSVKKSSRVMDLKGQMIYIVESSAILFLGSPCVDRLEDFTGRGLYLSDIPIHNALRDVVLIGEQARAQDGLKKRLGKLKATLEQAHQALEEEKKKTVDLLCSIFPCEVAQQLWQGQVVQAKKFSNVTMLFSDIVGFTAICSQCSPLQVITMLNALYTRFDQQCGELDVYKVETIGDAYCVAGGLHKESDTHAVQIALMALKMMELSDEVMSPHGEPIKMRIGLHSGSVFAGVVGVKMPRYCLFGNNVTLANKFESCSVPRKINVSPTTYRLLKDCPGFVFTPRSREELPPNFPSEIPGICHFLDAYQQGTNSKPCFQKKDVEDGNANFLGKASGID
Assay: lnCap cell-based cGMP expression assay (stimulating activity for sGC)
Settings: with DETA-NO, 37° C. 30 min, HTRF cGMP
Procedure: I. lnCap Cell-Based cGMP Expression Assay
1) Preparation of Solutions
10% BSA (Bovine Serum Albumin)
10 g of BSA was dissolved in 100 mL of double distilled water (ddH2O) to give 10% BSA.
5 mM DETA (Diethylenetriamine)-NO
10 mg of DETA-NO was weighed out and dissolved in 12.2 mL of double distilled water (ddH2O) to give 5 mM DETA-NO, which was aliquoted and cryopreserved in a freezer at −20° C.
a) To 1 mL of a lysis buffer was added 50 μL of cGMP-D2 (D2-labeled cyclic guanosine monophosphate), and the mixture was well mixed.
b) To 1 mL of a lysis buffer was added 50 μL of anti-cGMP cryptate (Eu^3+ cryptate-labeled anti-cyclic guanosine monophosphate antibody), and the mixture was well mixed.
(1) The compounds were diluted to 5 mM with DMSO. 10 μL of each of the compounds was transferred to a shallow well plate for Echo.
(2) The compounds were gradiently diluted with Echo. Each of the compounds was diluted to obtain 10 concentration gradients, and 50 nL of each of the concentration gradients was added to a 384 microwell plate.
3) Preparation of LNCap Cells
(1) LNCap medium: RPMI1640+10% fetal bovine serum+1% […].
(2) Phosphate buffered saline, pancreatin and the medium used in the process of cell passaging were pre-heated in a water bath at 37° C.
(3) The cells (the 14th generation) were taken out of the 37° C., 5% CO2 incubator, and the old medium was pipetted off the culture flask.
(4) 5 mL of phosphate buffered saline was pipetted into the culture flask to rinse the cells, and then the liquid was discarded.
(5) 3 mL of pancreatin was pipetted into the culture flask. After the culture flask was shaken, the liquid was discarded, and the culture flask was placed in the incubator.
(6) After about 2 min the culture flask was taken out. […] The cell suspension was transferred to a 50 mL centrifuge tube.
(7) 0.7 mL of the cell suspension was pipetted into a counter cup and the cells were counted on a ViCell XR. The remaining cells were centrifuged at 1000 rpm for 5 min, and the supernatant was removed.
(8) The cells were washed by adding 10 mL of the washing buffer and centrifuged at 1000 rpm for 5 min, and the supernatant was removed.
(9) The assay buffer was added to adjust the cell concentration to 1.25×10^6/mL. The cells were added to the microwell plate at 8 μL/well.
4) Formulation and Addition of DETA-NO
(1) 10 μL of 5 mM DETA-NO was added to 1240 μL of the assay buffer and to 1657 μL of the assay buffer to give 40 μM DETA-NO and 30 μM DETA-NO, respectively.
(2) DETA-NO was transferred to the 384 microwell plate at 2 μL/well using Bravo.
(3) The mixtures were centrifuged at 1500 rpm for 5 min. The microwell plate was incubated at 37° C. for 30 min.
5) Preparation of cGMP Standard Curve
(1) 1 mM of the cGMP stock solution was diluted to 10 μM with the assay buffer. Then 4-fold gradient dilution was performed to obtain 11 concentration gradients.
(2) The cGMP dilutions were added to the microwell plate at 10 μL/well.
6) Addition of Detection Reagents and Plate Reading
(1) cGMP-D2 was transferred to the 384 microwell plate at 5 μL/well using Bravo. The mixtures were centrifuged at 1500 rpm for 1 min.
(2) The anti-cGMP cryptate was transferred to the 384 microwell plate at 5 μL/well using Bravo. The mixtures were centrifuged at 1500 rpm for 1 min.
(3) The plate was incubated at room temperature for 1 h.
(4) 665/615 was read using envision.
(1) cGMP standard curve: a standard curve was generated using Graphpad prism based on the cGMP concentrations and 665/615 ratios.
(2) Conversion of HTRF (homogeneous time-resolved fluorescence) ratios (665/615) to cGMP concentrations: in Graphpad prism, the HTRF ratios (665/615) were copied into the ratio column of the cGMP standard curve, and the “Log inhibitor vs response-variable slope” analysis was run with “interpolate” selected to convert the HTRF ratios (665/615) to cGMP concentrations. […]

## CC1(C)C(=O)Nc2nc(-c3nn(Cc4ccccc4F)c4ncc(F)cc34)nc3c2C1C(=O)N3 (stereo not shown) [Compound 031]
  MEC: minimum effective concentration to stimulate cGMP production (three times greater than the basal value) in lnCap cells: 19.78 nM
